Measured values taken from patent publication US20130190223A1, “NONIMMUNOSUPPRESSIVE CYCLOSPORINE ANALOGUE MOLECULES” (ISOTECHNIKA PHARMA INC., priority 2008, published 2013).
Read-outs that look alike come from different tables or passages of the source.

Assays:
[1] = molecular target: T1, CyP-D (Rattus norvegicus, UniProt P29117); assay type: biochemical; conditions: mitochondria isolated from rat liver, 190 μM calcium, swelling as decline in A540
T1 construct: Mitochondria were isolated from fresh rat liver; from tissue; host or cells: rat liver mitochondria
T1 sequence (P29117 30-206): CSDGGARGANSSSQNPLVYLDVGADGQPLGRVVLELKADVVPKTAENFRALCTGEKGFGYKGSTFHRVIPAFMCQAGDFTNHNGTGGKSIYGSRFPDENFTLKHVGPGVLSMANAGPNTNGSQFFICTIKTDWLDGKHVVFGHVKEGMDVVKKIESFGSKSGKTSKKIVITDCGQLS
Excerpt: A mitochondria swelling assay was used to measure the efficacy of NICAMs in blocking CyP-D and mitochondrial permeability transition. Under certain pathological conditions, mitochondria lose the ability to regulate calcium levels, and excessive calcium accumulation in the mitochondrial matrix results in the opening of large pores in the inner mitochondrial membrane. Nonselective conductance of ions and molecules up to 1.5 kilodaltons through the pore, a process called mitochondrial permeability transition, leads to swelling of mitochondria and other events which culminate in cell death. […] In general, mitochondria isolated from rat liver were exposed to calcium to induce MPTP opening in the absence or presence of test compounds, and calcium-induced swelling was measured as a reduction in light absorbance at 540 nm.
Mitochondria were isolated from fresh rat liver. Ice-cold or 4° C. conditions were used throughout all steps of the isolation. The liver was rinsed thoroughly and chopped in a small volume of isolation buffer (IB; 10 mM Hepes, 70 mM sucrose, 210 mM mannitol, 0.5 mM EDTA). Aliquots of the minced liver were homogenized in IB using a Teflon-glass Potter-Elvehjem tissue grinder and passed through a cell screen filter. The filtered homogenate was centrifuged at 600 g for 10 min, then the resulting supernatant centrifuged at 7000 g for 10 min. The supernatant was discarded, and the pellet resuspended in wash buffer (10 mM Hepes, 70 mM sucrose, 210 mM mannitol) and centrifuged a final time at 7000 g for 10 min. The supernatant was discarded, and the mitochondria-containing pellet suspended and stored on ice in 2 mL of respiration buffer (RB; 5 mM Hepes, 70 mM sucrose, 210 mM mannitol, 10 mM sodium succinate, 1 mM sodium phosphate dibasic).
Test compound solutions were prepared from 10 mg/ml stocks (dimethyl sulfoxide vehicle) first by diluting the test compound 1000× into respiration buffer #2 (RB2; 5 mM Hepes, 70 mM sucrose, 210 mM mannitol, 10 mM sodium succinate, 1 mM sodium phosphate dibasic, 1% fetal bovine serum, 2 μM rotenone), then by 3×-serial dilutions in RB2 to achieve test compound concentrations of 10000, 3333, 1111, 370, 123, 41, and 14 ng/mL. Polystyrene tubes and plates were used for all preparations.
Swelling assays were completed in a 96-well flat-bottom polystyrene plates. In each well a 10-μL aliquot of mitochondria suspension, equivalent to 100-200 μg total protein, was combined with 90 μL of test compound, incubated for 10 min, then the baseline absorbance measured on a plate reader (540 nm wavelength; A540). Swelling was induced by adding 5 μL of 4 mM calcium chloride to achieve a final calcium concentration of 190 μM. Mitochondria swelling was indicated by a decline in A540. […] Duplicate samples were assayed for each test compound concentration.
Means and ranges of duplicate samples are shown.

[2] = system: human lymphocytes; assay: Immunosuppressive potency: inhibition of proliferation of anti-CD3 stimulated human lymphocytes (CFSE, flow cytometry); assay type: cell-based; conditions: relative potency: IC50 for inhibition of cell division normalized to CsA, 3 days incubation
Experimental: The immunosuppressive potency of test compounds was assessed by measuring their ability to inhibit the proliferation of human lymphocytes in cell culture. Lymphocytes were isolated from blood of normal human volunteers by Ficoll-gradient centrifugation and stained with 2 μg/ml carboxyfluoroscein diacetate succinimydyl ester (CFSE), a fluorescent cell division tracer molecule. Cells were stimulated through the CD3/T-cell receptor by seeding cells at 300,000/well into 96-well flat-bottom, high-binding plates coated with 1 μg/ml UCHT-1 anti-human CD3 antibody. Test compounds were prepared first as 10 mg/ml stock solutions in dimethylsulfoxide (DMSO). Test solutions were prepared by 500-fold dilution of the DMSO stock solutions, then 3-fold serial dilutions in cell culture medium (RPMI+5% FBS+penicillin-steptomycin) for a total of 7 concentrations per compound. Test solutions were added in equal volume to the culture wells containing cells to achieve final concentrations after dilution of 13.7 ng/ml-10,000 ng/ml. […] Following 3 days incubation cells were stained with CD95-APC (lymphocyte activation marker) and analyzed by flow cytometry with a Becton Dickinson FACSCalibur. Percentage cell division was assessed in forward/side-scatter-gated lymphocytes by measuring the proportion of cells that underwent one or more cell divisions as determined by serial halving of CFSE intensity. The nondivided parent population was determined from samples maintained in culture without anti-CD3 stimulation. IC50 values for inhibition of cell division were determined by nonlinear regression analysis. […]

[3] = system: calcineurin; conditions: literature statement; cited from earlier work
[4] = molecular target: CyP-A (Homo sapiens, UniProt P62937); conditions: cited from earlier work
CyP-A, sequence (P62937 whole entry): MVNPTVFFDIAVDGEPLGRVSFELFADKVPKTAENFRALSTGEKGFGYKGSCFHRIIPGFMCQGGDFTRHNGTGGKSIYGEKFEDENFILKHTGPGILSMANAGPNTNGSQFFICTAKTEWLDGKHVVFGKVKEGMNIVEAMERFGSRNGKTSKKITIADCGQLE

SMILES | CYP-D Inhibition (% Potency Vs CsA) [1] | Immunosuppression (% Relative to CsA) [2] | immunosuppressive activity [3] | binding affinity for CyP-A [4] | binding affinity for CyP-A ([4]; literature statement)
CCC1NC(=O)C(C(O)C(C)CC=CCCCCCCCCCC(=O)N(C)C)N(C)C(=O)C(C(C)C)N(C)C(=O)C(CC(C)C)N(C)C(=O)C(CC(C)C)N(C)C(=O)C(C)NC(=O)C(C)NC(=O)C(CC(C)C)N(C)C(=O)C(C(C)C)NC(=O)C(CC(C)C)N(C)C(=O)CN(C)C1=O (stereo not shown) [Compound 420-104] | 55.8% | 11% |  |  | 
CCC1NC(=O)C(C(O)C(C)CCCCCCCCO)N(C)C(=O)C(C(C)C)N(C)C(=O)C(CC(C)C)N(C)C(=O)C(CC(C)C)N(C)C(=O)C(C)NC(=O)C(C)NC(=O)C(CC(C)C)N(C)C(=O)C(C(C)C)NC(=O)C(CC(C)C)N(C)C(=O)CN(C)C1=O (stereo not shown) [Compound 420-112] | 106.7% | 2% |  |  | 
CCOC(=O)CCCCCCC=CCC(C)C(O)C1C(=O)NC(CC)C(=O)N(C)CC(=O)N(C)C(CC(C)C)C(=O)NC(C(C)C)C(=O)N(C)C(CC(C)C)C(=O)NC(C)C(=O)NC(C)C(=O)N(C)C(CC(C)C)C(=O)N(C)C(CC(C)C)C(=O)N(C)C(C(C)C)C(=O)N1C (stereo not shown) [Compound 420-113] | 33.2% | <1% |  |  | 
CCC1NC(=O)C(C(O)C(C)CC=CCCCCCCC(=O)N(C)C)N(C)C(=O)C(C(C)C)N(C)C(=O)C(CC(C)C)N(C)C(=O)C(CC(C)C)N(C)C(=O)C(C)NC(=O)C(C)NC(=O)C(CC(C)C)N(C)C(=O)C(C(C)C)NC(=O)C(CC(C)C)N(C)C(=O)CN(C)C1=O (stereo not shown) [Compound 420-114] | 63.4% | <1% |  |  | 
CCC1NC(=O)C(C(O)C(C)CC=CCCCCCCNC(=O)OC(C)(C)C)N(C)C(=O)C(C(C)C)N(C)C(=O)C(CC(C)C)N(C)C(=O)C(CC(C)C)N(C)C(=O)C(C)NC(=O)C(C)NC(=O)C(CC(C)C)N(C)C(=O)C(C(C)C)NC(=O)C(CC(C)C)N(C)C(=O)CN(C)C1=O (stereo not shown) [Compound 420-120] | 9.4% | 3% |  |  | 
C/C=C/C[C@@H](C)[C@@H](O)[C@H]1C(=O)N[C@@H](CC)C(=O)N(C)[C@H](C)C(=O)N(CC)[C@@H](C(C)C)C(=O)N[C@@H](C(C)C)C(=O)N(C)[C@@H](CC(C)C)C(=O)N[C@@H](C)C(=O)N[C@H](C)C(=O)N(C)[C@@H](CC(C)C)C(=O)N(C)[C@@H](CC(C)C)C(=O)N(C)[C@@H](C(C)C)C(=O)N1C [DEBIO 025, MeAla^3EtVal^4-Cyclosporin] |  |  | no immunosuppressive activity | retains binding affinity for CyP-A | 
C/C=C/C[C@@H](C)[C@@H](O)[C@H]1C(=O)N[C@@H](CC)C(=O)N(C)CC(=O)N(C)[C@@H]([C@@H](C)CC)C(=O)N[C@@H](C(C)C)C(=O)N(C)[C@@H](CC(C)C)C(=O)N[C@@H](C)C(=O)N[C@H](C)C(=O)N(C)[C@@H](CC(C)C)C(=O)N(C)[C@@H](CC(C)C)C(=O)N(C)[C@@H](C(C)C)C(=O)N1C [NIM 811, Melle^4-cyclosporine] |  |  | no immunosuppressive activity |  | retains binding affinity for CyP-A
C/C=C/C[C@@H](C)[C@@H](O)[C@H]1C(=O)N[C@@H](CC)C(=O)N(C)[C@H](SCCN(C)C)C(=O)N(C)[C@@H](CC(C)(C)O)C(=O)N[C@@H](C(C)C)C(=O)N(C)[C@@H](CC(C)C)C(=O)N[C@@H](C)C(=O)N[C@H](C)C(=O)N(C)[C@@H](CC(C)C)C(=O)N(C)[C@@H](CC(C)C)C(=O)N(C)[C@@H](C(C)C)C(=O)N1C [SCY-635, DimethylaminoethylthioSar^3-hydroxyLeu^4-Cyclosporin] |  |  | no immunosuppressive activity | retains binding affinity for CyP-A | 
